Measured values: patent US9890195B2, “MK2 inhibitor compositions and methods to enhance neurite outgrowth, neuroprotection, and nerve regeneration” (Purdue Research Foundation, priority 2009, dated 2018)
Where no end group is shown, it is not given here.

Test system: mixed cortical cultures comprising neurons, astrocytes, and microglia
Assay: Immunocytochemistry/cell imaging of mixed cortical cultures treated with MK2i and TNF-α
Type: cell-based, Sprague-Dawley rat
Settings: for morphological effects on neurons, astrocytes, microglia (FIG. 3): no TNF-α
Experimental: The effect of MK2i on neuronal cell death and microglical activation was investigated by treating 1-week old mixed cortical cultures comprising neurons, astrocytes, and microglia with the MK2i peptide […] [SEQ ID NO: 33]. Primary Cortical Cell Culture
Embryonic rat cortical tissue was obtained immediately following removal of embryos from the rat's abdomen. E17 Sprague-Dawley rat cortical tissue was placed in a 50 ml conical tube containing 5 ml of Solution 1 (NaCl 7.24 g/L; KCl 0.4 g/L; NaH2PO4 0.14 g/L; Glucose 2.61 g/L; Hepes 5.96 g/L; MgSO4 0.295 g/L; Bovine Serum Albumin 3 g/L). Under sterile conditions, 18 μl of trypsin solution (7.5 mg/ml in 0.9% saline) was added and tissue was passed through a 5-ml pipet several times to disassociate tissue. After the conical tube was placed in a 37° C. water bath for 20 minutes, 100 μl of trypsin inhibitor/DNAse solution (2.5 mg/ml trypsin inhibitor, 400 μg/ml DNase in 0.9% saline) was added to the tube and tissue was pipetted several times with a 5-ml pipet. Tissue was centrifuged at 1,000 rpm for 5 minutes at room temperature and supernatant was poured off. Cells were re-suspended in 16 ml of Hibernate E (BrainBits, Springfield, Ill.) and 100 μl of trypsin inhibitor/DNAse solution and pipetted up and down several times. Cells were filtered through a cell strainer and centrifuged at 1,400 rpm for 5 minutes at room temperature. Supernatant was poured off and cells were re-suspended in media. Primary cells were then plated in poly-D-lysine coated 96-well plates at a seeding density of 625,000 cells/cm^2 and incubated for 7-9 days at 37° C. After 7-9 days, cortical cells were treated with 5 ng/ml or 10 ng/ml of TNF-α to activate microglia. Cells then were treated with 0, 0.5, 1, or 3 mM MK2i peptide […] [SEQ ID NO: 33] for 4 hours, 8 hours, and 24 hours. After treatment, media was removed and stored at −20° C.
In preparation for staining mixed cortical cells, cell media was replaced with phosphate-buffered 4% formaldehyde solution for 5 minutes, followed by three washes using HBHS solution (HEPES-buffered Hank's saline containing 10 mg/L sodium azide, pH 7.4). Blocking solution, consisting of 10% normal goat serum in HBHS, then was applied for 30 minutes, followed by three washes with HBHS. Microglia, astrocytes, and neurons were labeled using antibodies against ionized calcium binding adaptor molecule 1 (Iba1, Wako), glial fibrillary acidic protein (GFAP, Millipore), and β-3-tubulin (β3tub, Covance), respectively. Antibodies were applied for 2 hours, at a dilution of 1:400 in HBHS. After two 10 minute washes and one 30 minute wash, secondary antibodies were applied. […]

YARAAARQARAKALARQLGVAA-NH2 [MK2i]
suppression of TNF-α-induced neuronal cell damage (FIG. 4) (5 ng/ml and 10 ng/ml TNF-α, 3 mM MK2i, which also resulted in neuronal cell damage): not maintained
morphological effects on neurons, astrocytes, microglia (FIG. 3) (0.5 mM and 1.0 mM MK2i (below 3 mM)): Minimal morphological effects
astrocyte damage (FIG. 6) (3 mM MK2i): damage to astrocytes
morphological effects on neurons, astrocytes, microglia (FIG. 3) (3 mM MK2i): increased neuronal and astrocytic cell damage, as well as microglial proliferation
